Results on 14 compounds are retold here after ChEMBL document CHEMBL1154350 (Bioorg Med Chem Lett, 2009).

Calls of active or inactive are those of the source. The calls are words filed in the database; no cut-off is given here.

Assay [1] concerns the target T1, Succinyl-diaminopimelate desuccinylase (Haemophilus influenzae (strain ATCC 51907 / DSM 11121 / KW20 / Rd), UniProt P44514).
T1 sequence (P44514 whole entry): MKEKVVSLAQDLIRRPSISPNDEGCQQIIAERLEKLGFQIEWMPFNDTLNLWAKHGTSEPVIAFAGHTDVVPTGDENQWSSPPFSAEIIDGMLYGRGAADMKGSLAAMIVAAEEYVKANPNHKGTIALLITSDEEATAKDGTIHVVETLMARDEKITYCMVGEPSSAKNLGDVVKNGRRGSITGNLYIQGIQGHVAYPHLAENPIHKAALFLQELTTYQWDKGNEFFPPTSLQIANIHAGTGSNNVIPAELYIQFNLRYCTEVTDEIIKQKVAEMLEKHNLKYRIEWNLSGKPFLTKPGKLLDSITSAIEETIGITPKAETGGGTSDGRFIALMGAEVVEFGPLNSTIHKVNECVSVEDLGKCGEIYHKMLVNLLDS
The assay can be described thus: Inhibition of Haemophilus influenzae recombinant DapE.

For assay [2], the target named is T1, Succinyl-diaminopimelate desuccinylase. Description: Inhibition of Haemophilus influenzae recombinant DapE by non-competitive binding assay.
The subject of assay [3] is Escherichia coli. The assay can be described thus: Antibacterial activity against Escherichia coli at 1 mg by antibiotic plate assay. The assay is classed as functional, organism-based.
For assay [4], the system named is Escherichia coli. The assay can be described thus: Antibacterial activity against Escherichia coli at 20 mg by antibiotic plate assay. The assay is classed as functional, organism-based.
Assay [5] has as its system Escherichia coli. The assay can be described thus: Antibacterial activity against Escherichia coli at 5 mg by antibiotic plate assay. The assay is classed as functional, organism-based.
Assay [6] concerns the target T1, Succinyl-diaminopimelate desuccinylase. The assay can be described thus: Inhibition of Haemophilus influenzae recombinant DapE by competitive binding assay.

Turning to `O=C(O)CCCS`, the half-inhibitory concentration (IC50) in assay [1] was 43 µM.
Still for that read-out and setting: the figure for `O=C(O)c1cccc(B(O)O)c1` is greater than 10000 µM; for `CCCCB(O)O` [BUTYL BORONIC ACID] it is roughly 10000 µM.
In the case of `O=C(O)CCP(=O)(O)O`, in assay [1], the concentration for half-maximal inhibition (IC50) is 1620 µM and the Ki came out at 800 µM.
As for `CC(=O)NO` [ACETOHYDROXAMIC ACID], the IC50 in assay [1] is greater than 1000 µM.
For `NC(=S)Nc1ccccc1` [PHENYLTHIOUREA], the half-maximal inhibitory concentration (IC50) in assay [1] is greater than 100 µM.
As for `OB(O)c1cccs1`, in assay [2], the Ki worked out at 67 µM. The concentration for half-maximal inhibition (IC50) in assay [1] turned out to be 92 µM.
Take `C[C@H](CS)C(=O)N1CCC[C@H]1C(=O)O`: the result with Escherichia coli [3], with Escherichia coli [4] and with Escherichia coli [5] was Active.
Take `CC(C)(S)[C@H](N)C(=O)O`: the Ki in assay [6] came to 4.6 µM. In addition, in assay [1], the concentration for half-maximal inhibition (IC50) turned out to be 13.7 µM.
For `O=C(O)c1ccc(B(O)O)cc1`, the IC50 in assay [1] is greater than 10000 µM.
On the same count and under the same terms, the value for `O=C(NO)OCc1ccccc1` was greater than 1000 µM; that for `CCOC(=O)[C@H](CCc1ccccc1)N[C@@H](C)C(=O)N1CCC[C@H]1C(=O)O` was greater than 1000 µM; that for `O=C(O)c1cccc(S)c1` was 34 µM.
Regarding `CC(C)(S)[C@@H](N)C(=O)O` [PENICILLAMINE], the IC50 in assay [1] turned out to be 50 µM.

Broadly, the IC50 is the point on the concentration scale where inhibition reaches its midpoint. The Ki is the dissociation constant of the complex between target and ligand, obtained from inhibition or displacement.
